# Assay results taken from US7445892B2, “Method of testing anticancer agent-sensitivity of tumor cells” (Eisai Co., Ltd., priority 2000, dated 2008).
# Columns and labels:
# HCT116-C9-C1 = assay: Gene expression analysis by quantitative PCR; assay type: cell-based, human; details: resistant strain HCT116-C9-C1, 8 μM, 0-12 hours, FIG. 4
# Experimental: (§1) E7070, or ER-35748 or ER-68487 represented by the structural formula shown below was added to the media of an E7070-susceptible strain HCT116-C9 and an E7070-resistant strain HCT116-C9-C1 at a concentration of 8 μM and the cells were cultured. Then, cells were recovered after 0, 3, 6 and 12 hours. Further, the cells were also cultured for 12 hours without adding the drug and recovered. In order to confirm that variations in gene expression obtained in Example 2 reflected the susceptibility of a tumor cell to E7070, changes of gene expression in E7070-susceptible cells and E7070-resistant cells were examined by quantitative PCR using RNA shown in Example 1, SYBR Green and ABI Prism 7700 Sequence Detection System (Perkin-Elmer Applied Biosystems). The operation was performed in two steps of a reverse transcription reaction and PCR reaction. […] The mRNA level in each specimen was quantified by measuring fluorescence intensity. In comparison of two or more specimens, quantitative values were corrected based on the mRNA level of GAPDH in each specimen. The relationships between the drug treatment time and each mRNA level are shown in FIGS. 2 to 5, where the quantified value at 0 hour after the drug treatment was used as a control (100%).
# HCT116-C9 = assay: Gene expression analysis by quantitative PCR; assay type: cell-based, human; details: susceptible strain HCT116-C9, 8 μM, 0-12 hours, FIG. 2
# Experimental: as §1
compound,measurement,setting,value
"NS(=O)(=O)c1ccc(S(=O)(=O)Nc2cccc3c(Cl)c[nH]c23)cc1 [E7070, N-(3-chloro-7-indolyl)-1,4-benzenedisulfonamide]","mRNA level variation of S80343, U07919, U11791, M95809, U18291, U63743, M61764 (corrected by GAPDH)",HCT116-C9-C1,no expression variation was observed
same,"mRNA level variation of S80343, U07919, U11791, M95809, U18291, U63743, M61764 (corrected by GAPDH)",HCT116-C9,largest expression variation
